system: MM.1S cells; assay: Inhibitory effect on the proliferation of MM.1S, MTS cell viability test; type: cell-based; details: Homo sapiens, MM1.S, 168 h, multiple myeloma MM.1S cells, 7 days incubation, read-out: Tumor cell inhibitory activity
Protocol: Method of tumor cell proliferation inhibition test: the inventors tested all the example compounds on hematologic tumor cells, multiple myeloma MMTs cell line and acute leukemia cell MV-4-11 cell line of some examples. The activity test method and results are as follows.
1. The Compound's Inhibitory Effect on the Proliferation of MM.1S, MTS Cell Viability Test:
MM.1S cells were cultured and collected with 1640 plus 10% fetal bovine serum. The cell concentration was diluted according to 7 days, and 180 ul cell suspension was added to each well of the 96-well cell plate to 20,000 cells. 20 ul of DMSO with a final concentration of 0.2% was added to the control wells. The compound was 5-fold diluted—from the 10 mM stock solution, and 20 ul was also added to each compound cell well (the final concentration of DMSO was 0.2%). The cells were placed in a 37° C., 5% CO2 incubator to incubate for 7 days. After the reaction solution was prepared according to the MTS kit (Promega, G5430), 20 μL was added to each well and incubated in a 37° C., 5% CO2 incubator for 3-4 h. Absorbance value at 490 nm was read with a microtiter plate, and 690 nm absorbance value was used as the background value. OD490-OD690 was used as the final initial data. The formula for calculating the inhibition rate of the compound is: inhibition rate=(ODDMSO-ODcompound)/(ODDMSO-Oblank)×100%. The compound's proliferation inhibition IC50 was fitted by Graph Pad Prism 5.0. The experiment was repeated three times, and the average and standard deviation was calculated according to the three parallel experiments.
Cell viability test results: **** represents cell viability IC50>20 μM, […] represents cell viability 1 μM<IC50<20 μM, ** represents cell viability 100 nM<IC50<1 μM, * represents cell viability IC50<100 nM.

Structure (SMILES) | IC50
O=C1CCC(N2Cc3c(CCCCCOc4ccnc5ccccc45)cccc3C2=O)C(=O)N1 (stereo not shown) [Example 1, 3-(1-oxo-4-(5-(quinoline-4-oxy)pentyl)isoindoline-2-)piperidine-2,6-dione] | < 100 nM
O=C1CCC(N2Cc3c(CCCOc4ccnc5ccccc45)cccc3C2=O)C(=O)N1 (stereo not shown) [Example 2, 3-(1-oxo-4-(3-(quinoline-4-oxy)propyl)isoindoline-2-)piperidine-2,6-dione] | 100 to 1000 nM
O=C1CCC(N2Cc3c(CCCCCCOc4ccnc5ccccc45)cccc3C2=O)C(=O)N1 (stereo not shown) [Example 3, 3-(1-oxo-4-(6-(quinoline-4-oxy)hexyl)isoindoline-2-)piperidine-2,6-dione] | < 100 nM
O=C1CCC(N2Cc3c(OCCCOc4ccnc5ccccc45)cccc3C2=O)C(=O)N1 (stereo not shown) [Example 4, 3-(1-oxo-4-(3-(quinoline-4-oxy)propoxy)isoindoline-2-)piperidine-2,6-dione] | 1000 to 20000 nM
O=C1CCC(N2Cc3c(CCCCCOc4cccc5cnccc45)cccc3C2=O)C(=O)N1 (stereo not shown) [Example 5] | 100 to 1000 nM
O=C1CCC(N2Cc3c(OCCCCOc4ccnc5ccccc45)cccc3C2=O)C(=O)N1 (stereo not shown) [Example 6, 3-(1-oxo-4-(4-(quinoline-4-oxy)butoxy)isoindoline-2-)piperidine-2,6-dione] | < 100 nM
Cc1ccc2nc(C(F)(F)F)cc(OCCCCCc3cccc4c3CN(C3CCC(=O)NC3=O)C4=O)c2c1 (stereo not shown) [Example 7, 3-(4-(5-((6-methyl-2-(trifluoromethyl)quinoline-4-)oxy)pentyl)-1-oxoisoindoline-2-)piperidine-2,6-dione] | 100 to 1000 nM
O=C1CCC(N2Cc3c(OCCCCOc4cc(C5CC5)nc5ccccc45)cccc3C2=O)C(=O)N1 (stereo not shown) [Example 8, 3-(4-(4-((2-cyclopropylquinoline-4-)oxy)butoxy)-1-oxoisoindoline-2-)piperidine-2,6-dione] | < 100 nM
O=C1CCC(N2Cc3c(CCCCCOc4ccnc5ccsc45)cccc3C2=O)C(=O)N1 (stereo not shown) [Example 9, 3-(1-oxo-4-(5-(thieno[3,2-b]pyridine-7-oxy)pentyl)isoindoline-2-)piperidine-2,6-dione] | < 100 nM
CCc1cc(OCCCCOc2cccc3c2CN(C2CCC(=O)NC2=O)C3=O)c2ccccc2n1 (stereo not shown) [Example 10, 3-(4-(4-((2-ethylquinoline-4-)oxy)butoxy)-1-oxoisoindoline-2-)piperidine-2,6-dione] | < 100 nM
O=C1CCC(N2Cc3c(CCCCCOc4cnc5ccccc5c4)cccc3C2=O)C(=O)N1 (stereo not shown) [Example 11, 3-(1-oxo-4-(5-(quinoline-3-oxy)pentyl)isoindoline-2-)piperidine-2,6-dione] | < 100 nM
O=C1CCC(N2Cc3c(OCCCCCOc4ccnc5ccccc45)cccc3C2=O)C(=O)N1 (stereo not shown) [Example 12, 3-(1-oxo-4-((5-(quinoline-4-oxy)pentyl)oxy)isoindoline-2-)piperidine-2,6-dione] | 100 to 1000 nM
O=C1CCC(N2Cc3c(OCCCC(=O)N4CCN(c5ccccc5)CC4)cccc3C2=O)C(=O)N1 (stereo not shown) [Example 28, 3-(1-oxo-4-(4-oxo-4-(4-phenylpiperazine-1-)butoxy)isoindoline-2-)piperidine-2,6-dione] | < 100 nM

Now from value to molecule:

IC50 | Structure (SMILES)
100 to 1000 nM | N[C@@H](CCCc1cccc2c1CN(C1CCC(=O)NC1=O)C2=O)c1nc2cccc(Br)c2[nH]1 (stereo in doubt) [Example 195, 3-(4-((S)-4-amino-4-(7-bromo-1H-benzo[d]imidazole-2-)butyl)-1-oxoisoindoline-2-)piperidine-2,6-dione]
< 100 nM | O=C1CCC(N2Cc3c(CCCCCOc4cc(C(F)(F)F)nc5ccccc45)cccc3C2=O)C(=O)N1 (stereo not shown) [Example 13, 3-(1-oxo-4-(5-((2-(trifluoromethyl)quinoline-4-)oxy)pentyl)isoindoline-2-)piperidine-2,6-ditone]
< 100 nM | O=C1CCC(N2Cc3c(OCCCCCCOc4ccnc5ccccc45)cccc3C2=O)C(=O)N1 (stereo not shown) [Example 14, 3-(1-oxo-4-((6-(quinoline-4-oxy)hexyl)oxy)isoindoline-2-)piperidine-2,6-dione]
< 100 nM | O=C1CCC(N2Cc3c(CCCCOc4ccnc5ccccc45)cccc3C2=O)C(=O)N1 (stereo not shown) [Example 15, 3-(1-oxo-4-(4-(quinoline-4-oxy)butyl)isoindoline-2-)piperidine-2,6-dione]
100 to 1000 nM | O=C1CCC(N2Cc3c(CCCCCN4CCOCC4)cccc3C2=O)C(=O)N1 (stereo not shown) [Example 16, 3-(4-(5-morpholinpentyl)-1-oxoisoindoline-2)-piperidine-2,6-dione]
< 100 nM | O=C1CCC(N2Cc3c(CCCCCN4CCCC4c4ccccc4)cccc3C2=O)C(=O)N1 (stereo not shown) [Example 17, 3-(1-oxo-4-(5-(2-phenylpyrroline-1-)pentyl)indoline-2-)piperidine-2,6-dione]
< 100 nM | O=C1CCC(N2Cc3c(CCCCCN4CCN(c5ccccc5)CC4)cccc3C2=O)C(=O)N1 (stereo not shown) [Example 18, 3-(1-oxo-4-(5-(4-phenylpiperazine-1-)pentyl)indoline-2-)piperidine-2,6-dione]
< 100 nM | COc1ccccc1N1CCN(CCCCCc2cccc3c2CN(C2CCC(=O)NC2=O)C3=O)CC1 (stereo not shown) [Example 19, 3-(4-(5-(4-(2-methoxyphenyl)piperazine-1-)pentyl)-1-oxoindoline-2-)piperidine-2,6-dione]
> 20000 nM | O=C1CCC(N2Cc3c(CCCCCN4CCC(c5ccccc5)CC4)cccc3C2=O)C(=O)N1 (stereo not shown) [Example 20, 3-(1-oxo-4-(5-(4-phenylpiperidine-1-)pentyl)indoline-2-)piperidine-2,6-dione]
< 100 nM | O=C1CCC(N2Cc3c(CCCCN4CCN(c5cccc(Cl)c5Cl)CC4)cccc3C2=O)C(=O)N1 (stereo not shown) [Example 21, 3-(4-(4-(4-(2,3-dichlorophenyl)piperazine-1-)butyl)-1-oxoisoindoline-2-)piperidine-2,6-dione]
< 100 nM | O=C1CCC(N2Cc3c(CCCCCN4CCN(c5cccc(C(F)(F)F)c5)CC4)cccc3C2=O)C(=O)N1 (stereo not shown) [Example 23, 3-(1-oxo-4-(5-(4-(3-trifluoromethylphenyl)piperazine-1-)pentyl)isoindoline-2-)piperidine-2,6-dione]
< 100 nM | O=C1CCC(N2Cc3c(CCCCCN4CCN(c5ccnc6ccccc56)CC4)cccc3C2=O)C(=O)N1 (stereo not shown) [Example 24, 3-(1-oxo-4-(5-(4-(quinoline-4-)piperazine-1-)pentyl)isoindoline-2-)piperidine-2,6-dione]
1000 to 20000 nM | C[C@]1(N2Cc3c(OCCCN4CCN(c5cccc(Cl)c5Cl)CC4)cccc3C2=O)CCC(=O)NC1=O [Example 25, (S)-3-(4-(3-(4-(2,3-dichlorophenyl)piperazine-1-)propoxy)-1-oxoisoindoline-2-)-3-methylpiperidine-2,6-dione]
< 100 nM | O=C1CCC(N2Cc3c(CCCCCN4CCN(c5cccc(Cl)c5Cl)CC4)cccc3C2=O)C(=O)N1 (stereo not shown) [Example 26, 3-(4-(5-(4-(2,3-dichlorophenyl)piperazine-1-)pentyl)-1-oxoisoindoline-2-)piperidine-2,6-dione]
1000 to 20000 nM | C[C@]1(N2C(=O)c3cccc(OCCCN4CCN(c5cccc(Cl)c5Cl)CC4)c3C2=O)CCC(=O)NC1=O [Example 27, (S)-4-(3-(4-(2,3-dichlorophenyl)piperazine-1-)propoxy)-2-(3-methyl-2,6-dioxopiperidine-3-)isoindoline-1,3-dione]

Reference: patent US12459921B2, “Isoindoline compound, preparation method, pharmaceutical composition and use thereof” (SHANGHAI INSTITUTE OF MATERIA MEDICA, CHINESE ACADEMY OF …, priority 2018, dated 2025)
